Drawing on PubChem BioAssay (NCI), this text covers TGI and GI50 for six molecules.

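The compound was tested at five concentrations on cells cultured in 96-well plates, with a 48-hour exposure period. GI50: concentration for 50% inhibition of growth. Definition used: TGI = concentration required for complete inhibition of growth.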

What is called TGI is the concentration at which net growth stops. The low end stands for greater sensitivity of the cells, the high end for lower sensitivity of the cells. As a reminder, the GI50 is the concentration at which growth is held to half of that of the control.

Test systems include UO-31 renal; MDA-MB-231 breast; T-47D breast; SW-620 colon; U251 CNS; MCF7 breast; MALME-3M melanoma; RXF 393 renal; OVCAR-5 ovarian; EKVX NSCLC.
Holding throughout (assay): DTP human tumour cell line panel, 48 h

On to `OC(COC(c1ccccc1)(c1ccccc1)c1ccccc1)C(O)CC1SCCS1` (centres undefined), for which the TGI in the experiment on UO-31 renal is 24.5 µM; in the experiment with MDA-MB-231 breast, 35.2 µM; in the experiment with T-47D breast, 58.3 µM; in the experiment with SW-620 colon, above 100 µM; in the experiment with U251 CNS it was 62.4 µM; in the experiment on MCF7 breast, 71.9 µM. In addition, the concentration for total growth inhibition (TGI) in the experiment on MALME-3M melanoma is 26.3 µM; with RXF 393 renal, 32.1 µM; in the experiment with OVCAR-5 ovarian, 44 µM; with EKVX NSCLC, 30.7 µM.

For the molecule `CNC(=O)c1c(NC(=O)c2ccc(C(C)(C)C)cc2)sc2c1CCC(=O)C2`, the GI50 in the experiment on UO-31 renal is 0.214 µM; in the experiment on MDA-MB-231 breast it was 0.3 µM; in the experiment with T-47D breast, 0.184 µM; in the experiment with SW-620 colon, 0.0984 µM; in the experiment with U251 CNS, 0.143 µM; in the experiment with MCF7 breast it was 0.264 µM. The concentration for 50% growth inhibition (GI50) with MALME-3M melanoma is 0.345 µM; in the experiment with RXF 393 renal, 0.244 µM; in the experiment with OVCAR-5 ovarian it was 0.341 µM; with EKVX NSCLC, 0.381 µM. Moreover, the total growth inhibition concentration (TGI) in the experiment with UO-31 renal was determined as 0.819 µM; with MDA-MB-231 breast, 1.13 µM; in the experiment with T-47D breast, 1.53 µM; in the experiment with SW-620 colon, 1.27 µM; with U251 CNS, 1.45 µM; in the experiment with MCF7 breast, 1.33 µM. The total growth inhibition concentration (TGI) amounted to 1.59 µM with MALME-3M melanoma, 1.01 µM with RXF 393 renal, 1.41 µM in the experiment on OVCAR-5 ovarian and 1.7 µM in the experiment with EKVX NSCLC.

With `Cc1cc2c(cc1Cl)S/C(=C/C(=O)O)C(Nc1ccc3ncsc3c1)=NS2(=O)=O`, the GI50 in the experiment on UO-31 renal is 14.8 µM; with MDA-MB-231 breast, 20.9 µM; in the experiment with T-47D breast it was 22.1 µM; with SW-620 colon, 16.3 µM; in the experiment on U251 CNS, 28.6 µM; in the experiment on MCF7 breast, 8.75 µM. Moreover, the GI50 in the experiment with MALME-3M melanoma is above 35.3 µM; with RXF 393 renal, 19.8 µM; in the experiment on OVCAR-5 ovarian, 23.4 µM; in the experiment on EKVX NSCLC, above 16.9 µM. Moreover, the total growth inhibition concentration (TGI) in the experiment with UO-31 renal was above 50.7 µM; in the experiment with MDA-MB-231 breast it was above 63.7 µM; in the experiment on T-47D breast, above 54.8 µM; with SW-620 colon, above 56 µM; in the experiment with U251 CNS, above 63.9 µM; in the experiment with MCF7 breast, above 92.5 µM. The concentration for total growth inhibition (TGI) is above 55.4 µM in the experiment on MALME-3M melanoma, above 100 µM with RXF 393 renal, above 42.4 µM in the experiment with OVCAR-5 ovarian and above 52.8 µM with EKVX NSCLC.

For `COc1ncc(Nc2ncc([C@@H](C)N3CCN(S(C)(=O)=O)CC3)cc2-c2nc(C)nc(N)n2)cc1F`, the GI50 in the experiment on UO-31 renal was below 0.0114 µM; in the experiment on MDA-MB-231 breast, 1.59 µM; in the experiment with T-47D breast it was below 0.01 µM; with SW-620 colon it was 2.82 µM; in the experiment on U251 CNS, 0.385 µM; in the experiment with MCF7 breast, 0.0147 µM. Besides, the 50% growth inhibitory concentration (GI50) in the experiment with MALME-3M melanoma is 0.199 µM; with RXF 393 renal it was 0.0158 µM; in the experiment with OVCAR-5 ovarian, below 0.0266 µM; in the experiment with EKVX NSCLC, 0.486 µM. Also, the concentration for total growth inhibition (TGI) with UO-31 renal was 1.89 µM; in the experiment on MDA-MB-231 breast it was 13.9 µM; in the experiment with T-47D breast, 0.0648 µM; in the experiment on SW-620 colon, above 100 µM; in the experiment on U251 CNS, above 100 µM; in the experiment on MCF7 breast, above 100 µM. The TGI with MALME-3M melanoma came to 10.5 µM; in the experiment on RXF 393 renal it was 0.453 µM; with EKVX NSCLC, 12.6 µM.

In the case of `Nc1nc([Se])c2ncn(C3OC(CO)C(O)C3O)c2n1` (centres undefined), the GI50 in the experiment with UO-31 renal is 24.3 µM; in the experiment with MDA-MB-231 breast it was 2.81 µM; with T-47D breast it was 28.8 µM; with SW-620 colon it was 28.8 µM; in the experiment with U251 CNS, 73.3 µM; with MCF7 breast, 4.09 µM. Also, the GI50 was above 100 µM in the experiment on MALME-3M melanoma, above 100 µM in the experiment with RXF 393 renal, 8.24 µM with OVCAR-5 ovarian and 37.6 µM in the experiment on EKVX NSCLC. Also, the TGI is above 100 µM with UO-31 renal; 69.8 µM in the experiment on MDA-MB-231 breast; above 100 µM in the experiment with T-47D breast; above 100 µM in the experiment on SW-620 colon; above 100 µM in the experiment with U251 CNS; above 100 µM in the experiment with MCF7 breast. The concentration for total growth inhibition (TGI) in the experiment on MALME-3M melanoma, in the experiment with RXF 393 renal, with OVCAR-5 ovarian and with EKVX NSCLC was above 100 µM in each case.

Turning to `CCN(CC)CCCNc1cc(OC)cc2nc3cc(Cl)ccc3nc12`, the GI50 in the experiment on UO-31 renal was 1.19 µM; in the experiment with MDA-MB-231 breast, 2.71 µM; with T-47D breast, 6.62 µM; in the experiment on SW-620 colon, 0.779 µM; in the experiment with U251 CNS, 1.22 µM; in the experiment on MCF7 breast, 1.5 µM. Further, the GI50 is 1.68 µM in the experiment with MALME-3M melanoma, 1.25 µM in the experiment with RXF 393 renal, 3.56 µM in the experiment on OVCAR-5 ovarian and 3.04 µM in the experiment on EKVX NSCLC. Besides, the TGI in the experiment on UO-31 renal was 4.08 µM; in the experiment with MDA-MB-231 breast, 11.7 µM; in the experiment on T-47D breast, 20.7 µM; with SW-620 colon it was 11.2 µM; in the experiment on U251 CNS, 3.68 µM; in the experiment with MCF7 breast it was 6.51 µM. Further, the TGI in the experiment with MALME-3M melanoma stood at 3.35 µM; in the experiment with RXF 393 renal, 2.63 µM; in the experiment with OVCAR-5 ovarian, 16.3 µM; in the experiment on EKVX NSCLC it was 14.1 µM.
